Results from ChEMBL document CHEMBL6096649, “Enantiomeric C-6 fluorinated swainsonine derivatives as highly selective and potent inhibitors of α-mannosidase and α-l-rhamnosidase: Design, synthesis and structure-activity relationship study” (Eur J Med Chem, 2025).

Species on record: Sus scrofa
Test: Inhibition of porcine kidney Alpha alpha-trehalase using p-nitrophenyl glycoside as substrate assessed as release of p-nitrophenol at 1000 uM by spectrometric analysis relative to control
For `O[C@@H]1[C@@H]2[C@@H](O)C[C@@H](F)CN2C[C@@H]1O`, the inhibition was 36%. Molecule `O[C@@H]1[C@@H]2[C@@H](O)CC(F)(F)CN2C[C@@H]1O` has an inhibition of 28.4%. For `O[C@@H]1[C@@H]2[C@H](O)C[C@@H](F)CN2C[C@@H]1O`, the inhibition was 11.7%.

Each molecule was assayed on Oryza sativa (assay: Inhibition of rice Alpha-glucosidase using p-nitrophenyl glycoside as substrate assessed as p-nitrophenol release at 1000 uM by spectrometric analysis relative to control).
`O[C@@H]1[C@@H]2[C@@H](O)C[C@@H](F)CN2C[C@@H]1O` showed an inhibition of 27.3%. For `O[C@@H]1[C@@H]2[C@@H](O)CC(F)(F)CN2C[C@@H]1O`, the inhibition was 0%. In the case of `O[C@@H]1[C@@H]2[C@H](O)C[C@@H](F)CN2C[C@@H]1O`, the inhibition is reported as 23.5%.

These molecules were tested on Aspergillus niger (assay: Inhibition of Aspergillus niger amyloglucosidase using p-nitrophenyl glycoside as substrate assessed as release of p-nitrophenol at 1000 uM by spectrometric analysis relative to control).
Molecule `O[C@@H]1[C@@H]2[C@@H](O)C[C@@H](F)CN2C[C@@H]1O` has an inhibition of 2.3%. Work on `O[C@@H]1[C@@H]2[C@@H](O)CC(F)(F)CN2C[C@@H]1O` yielded an inhibition of 10.9%. `O[C@@H]1[C@@H]2[C@H](O)C[C@@H](F)CN2C[C@@H]1O` showed an inhibition of 11.4%.

What follows are molecules tested against Alpha-galactosidase (Coffea arabica) (UniProt Q42656) (assay: Inhibition of coffee bean alpha-galactosidase using p-nitrophenyl glycoside as substrate assessed as release of p-nitrophenol at 1000 uM by spectrometric analysis relative to control).
Alpha-galactosidase (Coffea arabica), sequence (Q42656 16-378 limits assumed): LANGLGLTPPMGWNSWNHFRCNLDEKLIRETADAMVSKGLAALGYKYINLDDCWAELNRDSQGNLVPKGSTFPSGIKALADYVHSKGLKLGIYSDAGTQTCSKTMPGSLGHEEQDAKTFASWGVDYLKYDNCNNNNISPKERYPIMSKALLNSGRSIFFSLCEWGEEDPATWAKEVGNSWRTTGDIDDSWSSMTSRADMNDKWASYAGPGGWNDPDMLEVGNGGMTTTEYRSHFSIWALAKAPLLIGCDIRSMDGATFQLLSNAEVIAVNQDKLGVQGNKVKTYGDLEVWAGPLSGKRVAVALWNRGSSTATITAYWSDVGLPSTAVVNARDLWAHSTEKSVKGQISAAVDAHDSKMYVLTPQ
`O[C@@H]1[C@@H]2[C@@H](O)C[C@@H](F)CN2C[C@@H]1O` showed an inhibition of 0%. Work on `O[C@@H]1[C@@H]2[C@@H](O)CC(F)(F)CN2C[C@@H]1O` yielded an inhibition of 0%. Molecule `O[C@@H]1[C@@H]2[C@H](O)C[C@@H](F)CN2C[C@@H]1O` has an inhibition of 0%.

What follows are molecules tested on Penicillium decumbens (assay: Inhibition of Penicillium decumbens alpha-L-rhamnosidase using p-nitrophenyl glycoside as substrate assessed as release of p-nitrophenol at 1000 uM by spectrometric analysis relative to control).
Work on `O[C@@H]1[C@@H]2[C@@H](O)C[C@@H](F)CN2C[C@@H]1O` yielded an inhibition of 5.2%. In the case of `O[C@@H]1[C@@H]2[C@@H](O)CC(F)(F)CN2C[C@@H]1O`, the inhibition is reported as 2.2%. `O[C@@H]1[C@@H]2[C@H](O)C[C@@H](F)CN2C[C@@H]1O` was tested, and the inhibition was 125%.

Species on record: Bos taurus
Test: Inhibition of bovine liver beta-galactosidase using p-nitrophenyl glycoside as substrate assessed as release of p-nitrophenol at 1000 uM by spectrometric analysis relative to control
Molecule `O[C@@H]1[C@@H]2[C@@H](O)C[C@@H](F)CN2C[C@@H]1O` has an inhibition of 21.7%. Work on `O[C@@H]1[C@@H]2[C@H](O)C[C@@H](F)CN2C[C@@H]1O` yielded an inhibition of 15%.

Species on record: Rattus norvegicus
Test: Inhibition of rat intestinal Alpha-glucosidase using p-nitrophenyl glycoside as substrate assessed as p-nitrophenol release at 1000 uM by spectrometric analysis relative to control
`O[C@@H]1[C@@H]2[C@@H](O)C[C@@H](F)CN2C[C@@H]1O` showed an inhibition of 47.3%. For `O[C@@H]1[C@@H]2[C@@H](O)CC(F)(F)CN2C[C@@H]1O`, the inhibition was 0%. With `O[C@@H]1[C@@H]2[C@H](O)C[C@@H](F)CN2C[C@@H]1O` the inhibition was 11.6%.

Each molecule was assayed on Prunus dulcis (assay: Inhibition of almond Beta-glucosidase using p-nitrophenyl glycoside as substrate assessed as release of p-nitrophenol at 1000 uM by spectrometric analysis relative to control).
Work on `O[C@@H]1[C@@H]2[C@@H](O)C[C@@H](F)CN2C[C@@H]1O` yielded an inhibition of 0%. With `O[C@@H]1[C@@H]2[C@@H](O)CC(F)(F)CN2C[C@@H]1O` the inhibition was 10.5%. With `O[C@@H]1[C@@H]2[C@H](O)C[C@@H](F)CN2C[C@@H]1O` the inhibition was 4.7%.

Species on record: Bos taurus
Test: Inhibition of bovine liver beta-glucuronidase using p-nitrophenyl glycoside as substrate assessed as release of p-nitrophenol at 1000 uM by spectrometric analysis relative to control
With `O[C@@H]1[C@@H]2[C@@H](O)CC(F)(F)CN2C[C@@H]1O` the inhibition was 14.1%. In the case of `O[C@@H]1[C@@H]2[C@H](O)C[C@@H](F)CN2C[C@@H]1O`, the inhibition is reported as 0.1%.

What follows are molecules tested against Alpha glucosidase (Homo sapiens) (UniProt O43451+P10253+P14410+Q2M2H8) (assay: Inhibition of human Alpha-glucosidase using p-nitrophenyl glycoside as substrate assessed as p-nitrophenol release at 1000 uM by spectrometric analysis relative to control).
Assay type: protein assay
Work on `O[C@@H]1[C@@H]2[C@@H](O)C[C@@H](F)CN2C[C@@H]1O` yielded an inhibition of 15.6%. `O[C@@H]1[C@@H]2[C@@H](O)CC(F)(F)CN2C[C@@H]1O` was tested, and the inhibition was 0%. In the case of `O[C@@H]1[C@@H]2[C@H](O)C[C@@H](F)CN2C[C@@H]1O`, the inhibition is reported as 0%.

Species on record: Homo sapiens
Test: Inhibition of human lysosome beta-glucosidase using p-nitrophenyl glycoside as substrate assessed as release of p-nitrophenol at 1000 uM by spectrometric analysis relative to control
In the case of `O[C@@H]1[C@@H]2[C@@H](O)C[C@@H](F)CN2C[C@@H]1O`, the inhibition is reported as 43.5%. With `O[C@@H]1[C@@H]2[C@@H](O)CC(F)(F)CN2C[C@@H]1O` the inhibition was 0%. Molecule `O[C@@H]1[C@@H]2[C@H](O)C[C@@H](F)CN2C[C@@H]1O` has an inhibition of 3.4%.

Species on record: Bos taurus
Test: Inhibition of bovine liver beta-glucosidase using p-nitrophenyl glycoside as substrate assessed as release of p-nitrophenol at 1000 uM by spectrometric analysis relative to control
`O[C@@H]1[C@@H]2[C@@H](O)C[C@@H](F)CN2C[C@@H]1O` showed an inhibition of 25.6%. `O[C@@H]1[C@@H]2[C@@H](O)CC(F)(F)CN2C[C@@H]1O` gave an inhibition of 38.5%. `O[C@@H]1[C@@H]2[C@H](O)C[C@@H](F)CN2C[C@@H]1O` was tested, and the inhibition was 9%.

These molecules were tested on Escherichia coli (assay: Inhibition of Escherichia coli beta-glucuronidase using p-nitrophenyl glycoside as substrate assessed as release of p-nitrophenol at 1000 uM by spectrometric analysis relative to control).
In the case of `O[C@@H]1[C@@H]2[C@@H](O)C[C@@H](F)CN2C[C@@H]1O`, the inhibition is reported as 9.3%. For `O[C@@H]1[C@@H]2[C@@H](O)CC(F)(F)CN2C[C@@H]1O`, the inhibition was 0%. Work on `O[C@@H]1[C@@H]2[C@H](O)C[C@@H](F)CN2C[C@@H]1O` yielded an inhibition of 0%.

Each molecule was assayed against Alpha-glucosidase (Saccharomyces cerevisiae S288c) (UniProt P53341+P38158+P07265) (assay: Inhibition of yeast Alpha-glucosidase using p-nitrophenyl glycoside as substrate assessed as p-nitrophenol release at 1000 uM by spectrometric analysis relative to control).
Assay type: protein assay
For `O[C@@H]1[C@@H]2[C@@H](O)C[C@@H](F)CN2C[C@@H]1O`, the inhibition was 6.2%. `O[C@@H]1[C@@H]2[C@@H](O)CC(F)(F)CN2C[C@@H]1O` showed an inhibition of 0%. With `O[C@@H]1[C@@H]2[C@H](O)C[C@@H](F)CN2C[C@@H]1O` the inhibition was 4.5%.

Each molecule was assayed against T1, Alpha-mannosidase (Canavalia ensiformis) (UniProt C0HJB3) (assay: Inhibition of jack bean alpha-mannosidase using p-nitrophenyl glycoside as substrate assessed as release of p-nitrophenol at 1000 uM by spectrometric analysis relative to control).
T1 sequence (whole entry): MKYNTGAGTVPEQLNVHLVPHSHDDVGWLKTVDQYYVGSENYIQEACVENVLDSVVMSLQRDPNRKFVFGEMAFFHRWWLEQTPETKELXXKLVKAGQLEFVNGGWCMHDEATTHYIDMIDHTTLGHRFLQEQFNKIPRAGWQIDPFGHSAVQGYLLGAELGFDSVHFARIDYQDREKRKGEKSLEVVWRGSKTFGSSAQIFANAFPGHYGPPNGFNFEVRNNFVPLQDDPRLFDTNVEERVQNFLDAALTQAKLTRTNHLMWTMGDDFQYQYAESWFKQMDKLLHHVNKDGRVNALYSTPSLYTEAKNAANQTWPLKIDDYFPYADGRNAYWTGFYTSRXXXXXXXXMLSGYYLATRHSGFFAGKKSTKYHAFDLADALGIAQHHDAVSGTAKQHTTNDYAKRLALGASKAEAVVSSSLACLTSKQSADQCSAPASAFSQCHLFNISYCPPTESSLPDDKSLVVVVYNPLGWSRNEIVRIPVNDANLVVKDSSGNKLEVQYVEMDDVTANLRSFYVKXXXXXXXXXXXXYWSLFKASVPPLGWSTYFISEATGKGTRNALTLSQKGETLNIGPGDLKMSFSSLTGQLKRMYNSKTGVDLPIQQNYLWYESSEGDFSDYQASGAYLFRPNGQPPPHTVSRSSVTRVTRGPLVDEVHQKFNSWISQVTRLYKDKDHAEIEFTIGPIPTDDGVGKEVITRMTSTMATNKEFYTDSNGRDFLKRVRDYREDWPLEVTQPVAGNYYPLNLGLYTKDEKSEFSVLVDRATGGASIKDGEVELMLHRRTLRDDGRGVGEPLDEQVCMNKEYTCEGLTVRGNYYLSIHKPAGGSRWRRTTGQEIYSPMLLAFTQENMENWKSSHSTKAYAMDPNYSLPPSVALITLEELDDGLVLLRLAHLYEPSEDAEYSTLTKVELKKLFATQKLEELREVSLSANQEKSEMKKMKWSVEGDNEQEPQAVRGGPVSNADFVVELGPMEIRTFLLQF
`O[C@@H]1[C@@H]2[C@@H](O)C[C@@H](F)CN2C[C@@H]1O` gave an inhibition of 1.6%. With `O[C@@H]1[C@@H]2[C@@H](O)CC(F)(F)CN2C[C@@H]1O` the inhibition was 28.2%. `O[C@@H]1[C@@H]2[C@H](O)C[C@@H](F)CN2C[C@@H]1O` gave an inhibition of 18.8%.

The molecules below were run on Helix pomatia (assay: Inhibition of snail beta-mannosidase using p-nitrophenyl glycoside as substrate assessed as release of p-nitrophenol at 1000 uM by spectrometric analysis relative to control).
Molecule `O[C@@H]1[C@@H]2[C@@H](O)C[C@@H](F)CN2C[C@@H]1O` has an inhibition of 1.7%. Work on `O[C@@H]1[C@@H]2[C@@H](O)CC(F)(F)CN2C[C@@H]1O` yielded an inhibition of 0%. In the case of `O[C@@H]1[C@@H]2[C@H](O)C[C@@H](F)CN2C[C@@H]1O`, the inhibition is reported as 1.7%.
